Assay results published in patent US20260297081A1, “COMPOUNDS AND METHODS OF TREATING CANCERS” (Cullgen Inc., priority 2023, published 2026).

Molecular target: CDK4 (Homo sapiens, UniProt P11802+Q16531)
Experiment: HiBiT detection of HiBiT-tagged CDK4 protein level in MCF7 cells, 16 hours (Table 8)
Type: cell-based
Set-up: expressed in transfected cells; host or cells: MCF7
Settings: MCF7 cells stably expressing HiBiT tagged target proteins; for activity at 0.01 µM: 10 nM, read-out: % CDK4 Relative Level (10 nM); for activity at 0.1 µM: 100 nM, read-out: % CDK4 Relative Level (100 nM)
Description: HiBiT detection system quantitatively measures total amounts of HiBiT-tagged proteins using a luminescent based method. MCF7 cells stably expressing HiBiT tagged target proteins were treated with heterobifunctional compounds at indicated concentrations for 16 hours, then lysed with Nano-Glo HiBiT Lytic detection reagents.

CDK4, sequence (P11802 whole entry): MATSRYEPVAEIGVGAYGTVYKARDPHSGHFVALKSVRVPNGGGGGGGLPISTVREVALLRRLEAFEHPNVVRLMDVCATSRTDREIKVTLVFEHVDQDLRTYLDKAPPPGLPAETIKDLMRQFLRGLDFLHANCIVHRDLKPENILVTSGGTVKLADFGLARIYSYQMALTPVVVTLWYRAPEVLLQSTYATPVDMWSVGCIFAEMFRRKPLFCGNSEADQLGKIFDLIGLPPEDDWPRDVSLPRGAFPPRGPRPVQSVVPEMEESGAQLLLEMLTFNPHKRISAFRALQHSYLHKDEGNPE
CDK4, sequence (P24385 whole entry partner): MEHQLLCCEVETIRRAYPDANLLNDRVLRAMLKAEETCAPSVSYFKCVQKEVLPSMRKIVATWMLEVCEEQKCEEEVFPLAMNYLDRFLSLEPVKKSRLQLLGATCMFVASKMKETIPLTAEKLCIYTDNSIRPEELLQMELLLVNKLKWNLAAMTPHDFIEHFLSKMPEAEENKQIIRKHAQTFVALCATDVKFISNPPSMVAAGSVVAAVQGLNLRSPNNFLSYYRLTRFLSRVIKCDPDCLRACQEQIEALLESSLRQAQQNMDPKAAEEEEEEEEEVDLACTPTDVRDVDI
CDK4, sequence (Q16531 2-1140 limits assumed): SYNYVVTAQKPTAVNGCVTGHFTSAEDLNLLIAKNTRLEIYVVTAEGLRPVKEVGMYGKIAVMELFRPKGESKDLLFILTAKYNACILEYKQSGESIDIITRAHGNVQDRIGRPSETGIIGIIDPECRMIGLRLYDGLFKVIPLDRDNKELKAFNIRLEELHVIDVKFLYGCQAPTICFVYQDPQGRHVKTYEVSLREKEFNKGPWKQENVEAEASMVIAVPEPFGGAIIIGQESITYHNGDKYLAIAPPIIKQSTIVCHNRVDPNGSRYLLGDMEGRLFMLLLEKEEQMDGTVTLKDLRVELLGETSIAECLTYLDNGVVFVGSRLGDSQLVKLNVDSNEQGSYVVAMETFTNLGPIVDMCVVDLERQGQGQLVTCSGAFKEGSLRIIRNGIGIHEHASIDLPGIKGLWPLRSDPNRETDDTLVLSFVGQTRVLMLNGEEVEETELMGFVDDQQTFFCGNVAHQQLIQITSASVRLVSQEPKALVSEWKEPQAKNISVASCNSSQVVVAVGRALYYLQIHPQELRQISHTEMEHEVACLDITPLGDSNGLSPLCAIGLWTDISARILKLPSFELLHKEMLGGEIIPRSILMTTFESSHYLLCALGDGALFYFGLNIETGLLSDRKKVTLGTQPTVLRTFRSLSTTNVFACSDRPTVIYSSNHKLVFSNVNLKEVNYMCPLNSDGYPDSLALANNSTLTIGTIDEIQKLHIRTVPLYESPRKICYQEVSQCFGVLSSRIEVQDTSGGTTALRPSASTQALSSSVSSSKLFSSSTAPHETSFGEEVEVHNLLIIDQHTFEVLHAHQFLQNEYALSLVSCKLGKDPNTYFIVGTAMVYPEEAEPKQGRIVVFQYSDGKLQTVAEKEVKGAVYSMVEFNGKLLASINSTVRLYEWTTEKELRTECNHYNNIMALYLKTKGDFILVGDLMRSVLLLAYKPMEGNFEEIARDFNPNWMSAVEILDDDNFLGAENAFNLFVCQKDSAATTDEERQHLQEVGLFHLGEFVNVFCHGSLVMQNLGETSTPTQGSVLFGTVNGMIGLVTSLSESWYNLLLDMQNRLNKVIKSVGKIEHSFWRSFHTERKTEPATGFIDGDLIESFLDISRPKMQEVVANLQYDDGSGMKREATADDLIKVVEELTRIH

Row | activity at 0.01 µM | activity at 0.1 µM | Compound
1 | > 85% | > 85% | CNc1ccc(C(=O)Nc2ccc(N(C)C)nn2)c(NCCC(=O)N2CCN(c3ccc(Nc4ncc(F)c(-c5cc(F)c6nc(C)n(C(C)C)c6c5)n4)nc3)CC2)n1 [CPD-648, N-(6-(dimethylamino)pyridazin-3-yl)-2-((3-(4-(6-((5-fluoro-4-(4-fluoro-1-isopropyl-2-methyl-1H-benzo[d]imidazol-6-yl)pyrimidin-2-yl)amino)pyridin-3-yl)piperazin-1-yl)-3-oxopropyl)amino)-6-(methylamino)nicotinamide]
2 | > 85% | > 85% | CNc1ccc(C(=O)Nc2ccc(N(C)C)nn2)c(NCCCC(=O)N2CCN(c3ccc(Nc4ncc(F)c(-c5cc(F)c6nc(C)n(C(C)C)c6c5)n4)nc3)CC2)n1 [CPD-649, N-(6-(dimethylamino)pyridazin-3-yl)-2-((4-(4-(6-((5-fluoro-4-(4-fluoro-1-isopropyl-2-methyl-1H-benzo[d]imidazol-6-yl)pyrimidin-2-yl)amino)pyridin-3-yl)piperazin-1-yl)-4-oxobutyl)amino)-6-(methylamino)nicotinamide]
3 | > 85% | > 85% | CNc1ccc(C(=O)Nc2ccc(N(C)C)nn2)c(NCCCCC(=O)N2CCN(c3ccc(Nc4ncc(F)c(-c5cc(F)c6nc(C)n(C(C)C)c6c5)n4)nc3)CC2)n1 [CPD-650, N-(6-(dimethylamino)pyridazin-3-yl)-2-((5-(4-(6-((5-fluoro-4-(4-fluoro-1-isopropyl-2-methyl-1H-benzo[d]imidazol-6-yl)pyrimidin-2-yl)amino)pyridin-3-yl)piperazin-1-yl)-5-oxopentyl)amino)-6-(methylamino)nicotinamide]
4 | > 85% | > 85% | CNc1ccc(C(=O)Nc2ccc(N(C)C)nn2)c(NCCCCCC(=O)N2CCN(c3ccc(Nc4ncc(F)c(-c5cc(F)c6nc(C)n(C(C)C)c6c5)n4)nc3)CC2)n1 [CPD-651, N-(6-(dimethylamino)pyridazin-3-yl)-2-((6-(4-(6-((5-fluoro-4-(4-fluoro-1-isopropyl-2-methyl-1H-benzo[d]imidazol-6-yl)pyrimidin-2-yl)amino)pyridin-3-yl)piperazin-1-yl)-6-oxohexyl)amino)-6-(methylamino)nicotinamide]
5 | > 85% | > 85% | CNc1ccc(C(=O)Nc2ccc(N(C)C)nn2)c(NCCCCCCC(=O)N2CCN(c3ccc(Nc4ncc(F)c(-c5cc(F)c6nc(C)n(C(C)C)c6c5)n4)nc3)CC2)n1 [CPD-652, N-(6-(dimethylamino)pyridazin-3-yl)-2-((7-(4-(6-((5-fluoro-4-(4-fluoro-1-isopropyl-2-methyl-1H-benzo[d]imidazol-6-yl)pyrimidin-2-yl)amino)pyridin-3-yl)piperazin-1-yl)-7-oxoheptyl)amino)-6-(methylamino)nicotinamide]
6 | > 85% | > 85% | CNc1ccc(C(=O)Nc2ccc(N(C)C)nn2)c(NCCCCCCCC(=O)N2CCN(c3ccc(Nc4ncc(F)c(-c5cc(F)c6nc(C)n(C(C)C)c6c5)n4)nc3)CC2)n1 [CPD-653, N-(6-(dimethylamino)pyridazin-3-yl)-2-((8-(4-(6-((5-fluoro-4-(4-fluoro-1-isopropyl-2-methyl-1H-benzo[d]imidazol-6-yl)pyrimidin-2-yl)amino)pyridin-3-yl)piperazin-1-yl)-8-oxooctyl)amino)-6-(methylamino)nicotinamide]

The next lines start with the molecule.

Row | Compound | activity at 0.01 µM | activity at 0.1 µM
7 | CNc1ccc(C(=O)Nc2ccc(N(C)C)nn2)c(NCCCCCCCCNC(=O)CN2CCN(Cc3ccc(Nc4ncc(F)c(-c5cc(F)c6nc(C)n(C(C)C)c6c5)n4)nc3)CC2)n1 [CPD-614, N-(6-(dimethylamino)pyridazin-3-yl)-2-((8-(2-(4-((6-((5-fluoro-4-(4-fluoro-1-isopropyl-2-methyl-1H-benzo[d]imidazol-6-yl)pyrimidin-2-yl)amino)pyridin-3-yl)methyl)piperazin-1-yl)acetamido)octyl)amino)-6-(methylamino)nicotinamide] | > 85% | > 85%
8 | CNc1ccc(C(=O)Nc2ccc(N(C)C)nn2)c(NCCOCCNC(=O)CN2CCN(Cc3ccc(Nc4ncc(F)c(-c5cc(F)c6nc(C)n(C(C)C)c6c5)n4)nc3)CC2)n1 [CPD-615, N-(6-(dimethylamino)pyridazin-3-yl)-2-((2-(2-(2-(4-((6-((5-fluoro-4-(4-fluoro-1-isopropyl-2-methyl-1H-benzo[d]imidazol-6-yl)pyrimidin-2-yl)amino)pyridin-3-yl)methyl)piperazin-1-yl)acetamido)ethoxy)ethyl)amino)-6-(methylamino)nicotinamide] | > 85% | > 85%
9 | CNc1ccc(C(=O)Nc2ccc(N(C)C)nn2)c(NCCOCCOCCC(=O)N2CCN(c3ccc(Nc4ncc5cc(C(=O)N(C)C)n(C6CCCC6)c5n4)nc3)CC2)n1 [CPD-623, 7-cyclopentyl-2-((5-(4-(3-(2-(2-((3-((6-(dimethylamino)pyridazin-3-yl)carbamoyl)-6-(methylamino)pyridin-2-yl)amino)ethoxy)ethoxy)propanoyl)piperazin-1-yl)pyridin-2-yl)amino)-N,N-dimethyl-7H-pyrrolo[2,3-d]pyrimidine-6-carboxamide] | > 85% | > 85%
10 | CNc1ccc(C(=O)Nc2ccc(N(C)C)nn2)c(NCCNC(=O)CN2CCN(c3ccc(Nc4ncc5cc(C(=O)N(C)C)n(C6CCCC6)c5n4)nc3)CC2)n1 [CPD-624, 7-cyclopentyl-2-((5-(4-(2-((2-((3-((6-(dimethylamino)pyridazin-3-yl)carbamoyl)-6-(methylamino)pyridin-2-yl)amino)ethyl)amino)-2-oxoethyl)piperazin-1-yl)pyridin-2-yl)amino)-N,N-dimethyl-7H-pyrrolo[2,3-d]pyrimidine-6-carboxamide] | 55 to 85% | 55 to 85%
11 | CNc1ccc(C(=O)Nc2ccc(N(C)C)nn2)c(NCCOCCNC(=O)CN2CCN(c3ccc(Nc4ncc5cc(C(=O)N(C)C)n(C6CCCC6)c5n4)nc3)CC2)n1 [CPD-631, 7-cyclopentyl-2-((5-(4-(2-((2-(2-((3-((6-(dimethylamino)pyridazin-3-yl)carbamoyl)-6-(methylamino)pyridin-2-yl)amino)ethoxy)ethyl)amino)-2-oxoethyl)piperazin-1-yl)pyridin-2-yl)amino)-N,N-dimethyl-7H-pyrrolo[2,3-d]pyrimidine-6-carboxamide] | > 85% | > 85%
12 | CNc1ccc(C(=O)Nc2ccc(N(C)C)nn2)c(NCCC(=O)N2CCN(c3ccc(Nc4ncc5cc6n(c5n4)C4(CCCCC4)CNC6=O)nc3)CC2)n1 [CPD-632, N-(6-(dimethylamino)pyridazin-3-yl)-6-(methylamino)-2-((3-oxo-3-(4-(6-((6′-oxo-7′,8′-dihydro-6′H-spiro[cyclohexane-1,9′-pyrazino[1′,2′:1,5]pyrrolo[2,3-d]pyrimidin]-2′-yl)amino)pyridin-3-yl)piperazin-1-yl)propyl)amino)nicotinamide] | > 85% | > 85%
13 | CNc1ccc(C(=O)Nc2ccc(N(C)C)nn2)c(NCCCCCCCC(=O)N2CCN(c3ccc(Nc4ncc5cc6n(c5n4)C4(CCCCC4)CNC6=O)nc3)CC2)n1 [CPD-637, N-(6-(dimethylamino)pyridazin-3-yl)-6-(methylamino)-2-((8-oxo-8-(4-(6-((6′-oxo-7′,8′-dihydro-6′H-spiro[cyclohexane-1,9′-pyrazino[1′,2′:1,5]pyrrolo[2,3-d]pyrimidin]-2′-yl)amino)pyridin-3-yl)piperazin-1-yl)octyl)amino)nicotinamide] | > 85% | > 85%
14 | CNc1ccc(C(=O)Nc2ccc(N(C)C)nn2)c(NCCOCCC(=O)N2CCN(c3ccc(Nc4ncc5cc6n(c5n4)C4(CCCCC4)CNC6=O)nc3)CC2)n1 [CPD-638] | > 85% | > 85%
15 | CNc1ccc(C(=O)Nc2ccc(N(C)C)nn2)c(NCCNC(=O)CN2CCN(c3ccc(Nc4ncc5cc6n(c5n4)C4(CCCCC4)CNC6=O)nc3)CC2)n1 [CPD-640, N-(6-(dimethylamino)pyridazin-3-yl)-6-(methylamino)-2-((2-(2-(4-(6-((6′-oxo-7′,8′-dihydro-6′H-spiro[cyclohexane-1,9′-pyrazino[1′,2′:1,5]pyrrolo[2,3-d]pyrimidin]-2′-yl)amino)pyridin-3-yl)piperazin-1-yl)acetamido)ethyl)amino)nicotinamide] | > 85% | 55 to 85%
16 | CNc1ccc(C(=O)Nc2ccc(N(C)C)nn2)c(NCCCNC(=O)CN2CCN(c3ccc(Nc4ncc5cc6n(c5n4)C4(CCCCC4)CNC6=O)nc3)CC2)n1 [CPD-641, N-(6-(dimethylamino)pyridazin-3-yl)-6-(methylamino)-2-((3-(2-(4-(6-((6′-oxo-7′,8′-dihydro-6′H-spiro[cyclohexane-1,9′-pyrazino[1′,2′:1,5]pyrrolo[2,3-d]pyrimidin]-2′-yl)amino)pyridin-3-yl)piperazin-1-yl)acetamido)propyl)amino)nicotinamide] | > 85% | > 85%
17 | CNc1ccc(C(=O)Nc2ccc(N(C)C)nn2)c(NCCOCCNC(=O)CN2CCN(c3ccc(Nc4ncc5cc6n(c5n4)C4(CCCCC4)CNC6=O)nc3)CC2)n1 [CPD-647, N-(6-(dimethylamino)pyridazin-3-yl)-6-(methylamino)-2-((2-(2-(2-(4-(6-((6′-oxo-7′,8′-dihydro-6′H-spiro[cyclohexane-1,9′-pyrazino[1′,2′:1,5]pyrrolo[2,3-d]pyrimidin]-2′-yl)amino)pyridin-3-yl)piperazin-1-yl)acetamido)ethoxy)ethyl)amino)nicotinamide] | > 85% | > 85%
